Source: BigSolDB 2.1

O=c1c(O)c(-c2ccc(O)c(O)c2)oc2cc(O)cc(O)c12
solubility (mole fraction)
Details | 292.8 K | 298.6 K | 303.2 K | 308.6 K | 314.1 K | 318.8 K | 322.2 K | 325.6 K | 331.2 K | 333.8 K
in ethanol | 0.00135 | 0.00153 | 0.00165 | 0.00178 | 0.00193 | 0.00207 | 0.00218 | 0.0023 | 0.0025 | 0.00255
in methanol | 0.000845 | 0.000919 | 0.000957 | 0.00104 | 0.00113 | 0.00127 | 0.00133 | 0.00142 | 0.00159 | 0.00163
in water | 5.04e-05 | 5.51e-05 | 5.85e-05 | 6.18e-05 | 6.53e-05 | 6.7e-05 | 6.91e-05 | 7.13e-05 | 7.38e-05 | 7.53e-05
